Laboratory results published in DBAASP.
In brackets after ≈: the same amount, converted by molar mass. Several values for one entry are separate records, joined by “and”; a condition that tells them apart may be missing. Equal entries are not always repeated. Values belong to the compound of their own block, whether it stands above or below them.

Columns and labels:
Test in all cases: ≥ marks a high value that may be exact or a test limit, other limits are often not marked, values filed in µg/mL are converted to µM
[1] = system: Enterococcus faecalis ATCC 29212
[2] = system: Staphylococcus aureus ATCC 43300
Escherichia coli MG1655 = system: Escherichia coli MG1655
[3] = system: Bacillus subtilis MTCC 14416
[4] = system: Pseudomonas aeruginosa ATCC 27853
Vibrio cholerae = system: Vibrio cholerae
[5] = system: Staphylococcus aureus MTCC 9542
Escherichia coli C25 = system: Escherichia coli C25
[6] = system: Staphylococcus aureus ATCC 25923
[7] = system: Staphylococcus epidermidis KCTC 1917
[8] = system: Escherichia coli ATCC 25922
[9] = system: Pseudomonas aeruginosa ATCC 15692
[10] = system: Salmonella typhimurium KCTC 1926
[11] = system: Listeria monocytogenes KCTC 19111
[12] = system: Salmonella enterica subsp. enterica serovar Newport
[13] = system: Salmonella enterica serovar Tennessee
Escherichia coli JW0013 = system: Escherichia coli JW0013
[14] = system: Salmonella typhimurium SL1344
Escherichia coli = system: Escherichia coli
[15] = system: Escherichia coli JW0368 ΔsbmA
Escherichia coli JJ2489 = system: Escherichia coli JJ2489
Escherichia coli BW25113 = system: Escherichia coli BW25113
Escherichia coli MC1041 = system: Escherichia coli MC1041
[16] = system: Salmonella enterica subsp. enterica serovar Infantis
Escherichia coli J2210 = system: Escherichia coli J2210
[17] = system: Escherichia coli JW2778 ΔygdD
[18] = system: Salmonella enterica subsp. enterica serovar Enteritidis MH91989
[19] = system: Pseudomonas aeruginosa MTCC 3542
[20] = system: Staphylococcus aureus MTCC 3160
[21] = system: Citrobacter koseri MTCC 1657
[22] = system: Klebsiella oxytoca MTCC 2275
[23] = system: Acinetobacter baumannii MTCC 9829
[24] = system: Klebsiella pneumoniae MTCC 7407
[25] = system: Pluralibacter gergoviae MTCC 3826
[26] = system: Shigella flexneri MTCC 1457
[27] = system: Staphylococcus haemolyticus MTCC 3383
[28] = system: Proteus mirabilis MTCC 3158
[29] = system: Haemophilus influenzae MTCC 621
[30] = system: Stenotrophomonas maltophilia MTCC 1890
[31] = system: Alkalihalobacillus alcalophilus MTCC 860
[32] = system: Vibrio cholerae MTCC 3904
[33] = system: Salmonella enterica MTCC 9844
[34] = system: Escherichia coli K12 MG1655
[35] = system: Alcaligenes faecalis MTCC 1937
[36] = system: Citrobacter freundii MTCC 1658
[37] = system: Bordetella bronchiseptica MTCC 6837
[38] = system: Klebsiella aerogenes MTCC 111
[39] = system: Shigella boydii MTCC 11947
[40] = system: Enterococcus faecalis MTCC 439
[41] = system: Corynebacterium glutamicum MTCC 2679
[42] = system: Salmonella enterica subsp. enterica serovar Typhimurium ATCC 14028
[43] = system: Proteus vulgaris MTCC 1771

SMILES: CC[C@H](C)[C@H](NC(=O)CNC(=O)[C@H](CCCN=C(N)N)NC(=O)[C@H](Cc1ccc(O)cc1)NC(=O)[C@@H](NC(=O)[C@H](CCCN=C(N)N)NC(=O)[C@H](Cc1ccccc1)NC(=O)[C@H](Cc1c[nH]c2ccccc12)NC(=O)[C@H](CCCCN)NC(=O)[C@@H](N)CCCCN)C(C)C)C(=O)N[C@@H](Cc1ccc(O)cc1)C(=O)N[C@@H](CCCN=C(N)N)C(=O)N[C@@H](CCCN=C(N)N)C(=O)N[C@@H](CCCN=C(N)N)C(N)=O [KKWFRVYRGIYRRR]
- MIC (Escherichia coli C25): ≥ 63 µM
- MIC [6]: 16 µM (≈ 31.7 µg/mL)

SMILES: CSCC[C@H](NC(=O)[C@H](CCCN=C(N)N)NC(=O)[C@H](Cc1cnc[nH]1)NC(=O)[C@H](Cc1c[nH]c2ccccc12)NC(=O)[C@H](CCCN=C(N)N)NC(=O)CNC(=O)[C@H](Cc1c[nH]c2ccccc12)NC(=O)[C@H](CCCN=C(N)N)NC(=O)[C@@H](N)CCCN=C(N)N)C(=O)N[C@@H](CCCN=C(N)N)C(=O)N[C@@H](CCCN=C(N)N)C(=O)N[C@@H](CCCN=C(N)N)C(=O)NCC(=O)N[C@@H](CCCN=C(N)N)C(=O)O [RRWGRWHRMRRRGR]
- MIC [19]: ≥ 63.3 µM
- MIC [20]: ≥ 63.3 µM
- MIC [21]: 7.91 µM (≈ 16 µg/mL)
- MIC [22]: 31.6 µM (≈ 64 µg/mL)
- MIC [23]: ≥ 63.3 µM
- MIC [24]: ≥ 63.3 µM
- MIC [25]: ≥ 63.3 µM
- MIC [26]: 31.6 µM (≈ 64 µg/mL)
- MIC [27]: 1.98 µM (≈ 4 µg/mL)
- MIC [28]: ≥ 63.3 µM
- MIC [29]: ≥ 63.3 µM
- MIC [30]: ≥ 63.3 µM
- MIC [31]: 15.8 µM (≈ 32 µg/mL)
- MIC [32]: ≥ 63.3 µM
- MIC [33]: ≥ 63.3 µM
- MIC [34]: ≥ 63.3 µM
- MIC [35]: ≥ 63.3 µM
- MIC [36]: ≥ 63.3 µM
- MIC [37]: ≥ 63.3 µM
- MIC [38]: ≥ 63.3 µM
- MIC [39]: 31.6 µM (≈ 64 µg/mL)
- MIC [40]: ≥ 63.3 µM
- MIC [41]: 1.98 µM (≈ 4 µg/mL)
- MIC [42]: > 63.3 µM
- MIC [43]: ≥ 63.3 µM

More lines, main results first:

- MIC [1]: 21.5 µM (≈ 49.9 µg/mL)
- MIC [2]: 10.7 µM (≈ 25 µg/mL)
- MIC (Escherichia coli MG1655): ≥ 42.9 µM
- MIC [3]: 21.5 µM (≈ 49.9 µg/mL)
- MIC [4]: > 42.9 µM
- MIC [5]: 5.37 µM (≈ 12.5 µg/mL)
SMILES: CC[C@H](C)[C@@H]1NC(=O)[C@H](CCCCN)NC(=O)[C@@H](NC(=O)[C@H](CC(C)C)NC(=O)[C@@H](NC(=O)[C@H](CCC(N)=O)NC(=O)[C@@H]2CCCN2C(=O)[C@H](CC(C)C)NC(=O)[C@H](Cc2ccccc2)NC(=O)[C@H](CC(N)=O)NC(=O)[C@H](C)NC(=O)[C@H](C)NC(=O)[C@H](CC(C)C)NC(=O)CNC(=O)[C@H](C)NC(=O)[C@@H](NC(=O)[C@@H](N)Cc2c[nH]c3ccccc23)[C@@H](C)CC)[C@@H](C)CC)CSSC[C@@H](C(N)=O)NC(=O)[C@H](CCCCN)NC(=O)[C@H](CCCN=C(N)N)NC(=O)[C@H](C)NC1=O [WIAGLAANFLPQILCKIARKC]
- MIC (Vibrio cholerae): 10.7 µM (≈ 25 µg/mL)

- MIC [7]: 8 µM (≈ 9.83 µg/mL)
- MIC [8]: 4 µM (≈ 4.91 µg/mL)
- MIC [9]: 8 µM (≈ 9.83 µg/mL)
- MIC [10]: 8 µM (≈ 9.83 µg/mL)
- MIC [11]: 8 µM (≈ 9.83 µg/mL)
- MIC [6]: 64 µM (≈ 78.6 µg/mL)
SMILES: NCCCC[C@H](NC(=O)[C@H](Cc1ccc(O)cc1)NC(=O)[C@H](Cc1c[nH]c2ccccc12)NC(=O)[C@H](CCCCN)NC(=O)[C@H](CCCCN)NC(=O)[C@H](Cc1ccc(O)cc1)NC(=O)[C@H](Cc1c[nH]c2ccccc12)NC(=O)[C@@H](N)CCCCN)C(N)=O [KWYKKWYK]

- MIC [12]: 0.075 µM (≈ 0.175 µg/mL)
- MIC [13]: 0.3 µM (≈ 0.698 µg/mL)
- MIC (Escherichia coli JW0013): 0.075 µM (≈ 0.175 µg/mL)
- MIC [14]: 0.15 µM (≈ 0.349 µg/mL)
- MIC (Escherichia coli): 0.197 µM and 0.3 µM
- MIC [15]: 0.834 µM (≈ 1.94 µg/mL)
- MIC (Escherichia coli JJ2489): 0.104 µM (≈ 0.242 µg/mL)
- MIC (Escherichia coli BW25113): 0.075 µM (≈ 0.175 µg/mL)
- MIC (Escherichia coli MC1041): 0.15 µM (≈ 0.349 µg/mL)
- MIC [16]: 0.3 µM (≈ 0.698 µg/mL)
- MIC (Escherichia coli J2210): 0.208 µM (≈ 0.484 µg/mL)
- MIC [17]: 0.208 µM (≈ 0.484 µg/mL)
- MIC [18]: 0.6 µM (≈ 1.4 µg/mL)
SMILES: CC[C@H](C)[C@H](NC(=O)[C@@H]1CCCN1C(=O)[C@H](CCCCN)NC(=O)[C@@H]1CCCN1C(=O)[C@@H]1CCCN1C(=O)[C@@H](NC(=O)[C@@H]1CCCN1C(=O)[C@H](CCCN=C(N)N)NC(=O)[C@@H]1CCCN1C(=O)[C@H](CCCCN)NC(=O)[C@H](Cc1ccc(O)cc1)NC(=O)[C@H](CO)NC(=O)CNC(=O)[C@H](CCCCN)NC(=O)[C@H](CC(=O)O)NC(=O)[C@@H](N)C(C)C)[C@@H](C)O)C(=O)N[C@@H](Cc1ccc(O)cc1)C(=O)N[C@@H](CC(N)=O)C(=O)N[C@@H](CCCN=C(N)N)C(=O)N[C@@H](CC(N)=O)C(=O)O [VDKGSYKPRPTPPKPIYNRN]
